Key:
Acinetobacter baumannii = type: cell-based; conditions: MH medium, 12-18 h
In short: (§1)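 Broth microdilution in Müller-Hinton medium, two-fold serial dilutions from a starting 32–256 μg/mL, compounds dissolved in PBS; inoculum about 5×10^5 CFU, incubated 37° C ~18 h. MIC taken as lowest concentration with no visible growth by eye; polymyxin as reference.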

[1] = tested on: Staphylococcus aureus (COL, MRSA reference strain); type: cell-based; conditions: MH medium, 12-18 h
In short: as §1

With Polymyxin B [reference compound] the “MIC A. baumannii ATCC19606” value (Acinetobacter baumannii) was less than 1 µg/mL and the “MIC S. aureus COL” value [1] was 64 µg/mL.
